Measurements reported in patent publication US20200239530A1, “COMPOUNDS AND METHODS OF MODULATING PROTEIN DEGRADATION” (Vividion Therapeutics, Inc., priority 2017, published 2020).
Blank lines part the entries; values can stand above or below the compound they belong to.

Key:
Q9C0D3 = molecular target: T1, Q9C0D3 (Homo sapiens, UniProt Q9C0D3); test: Cysteine liganding, probe competition (Table 2B); format: binding; settings: one line per cysteine site, read-out: KB05_100 uM_percent_inhibition
T1 construct: endogenous in cells; whole-cell lysate
T1 sequence (Q9C0D3 whole entry): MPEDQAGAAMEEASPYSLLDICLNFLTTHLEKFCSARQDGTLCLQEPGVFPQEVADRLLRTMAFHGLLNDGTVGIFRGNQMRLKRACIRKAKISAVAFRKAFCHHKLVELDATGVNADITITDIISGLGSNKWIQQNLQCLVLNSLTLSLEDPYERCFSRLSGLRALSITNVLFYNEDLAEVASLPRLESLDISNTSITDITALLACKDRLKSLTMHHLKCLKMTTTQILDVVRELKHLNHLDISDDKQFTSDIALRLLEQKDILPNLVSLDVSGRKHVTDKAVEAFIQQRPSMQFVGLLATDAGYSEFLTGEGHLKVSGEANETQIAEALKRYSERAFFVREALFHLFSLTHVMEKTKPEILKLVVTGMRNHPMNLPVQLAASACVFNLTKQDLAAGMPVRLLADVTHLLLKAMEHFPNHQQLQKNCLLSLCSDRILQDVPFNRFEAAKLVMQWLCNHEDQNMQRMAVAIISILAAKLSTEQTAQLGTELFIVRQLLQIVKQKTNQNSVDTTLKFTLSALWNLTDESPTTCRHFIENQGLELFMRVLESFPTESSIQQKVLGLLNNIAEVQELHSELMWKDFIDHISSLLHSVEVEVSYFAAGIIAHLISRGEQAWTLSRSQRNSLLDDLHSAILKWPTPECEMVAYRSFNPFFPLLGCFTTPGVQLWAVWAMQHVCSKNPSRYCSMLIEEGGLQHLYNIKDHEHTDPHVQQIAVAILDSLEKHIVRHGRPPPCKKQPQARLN
Source text: (§1) The following 96-well sample prep protocol was used for sample preparation.

Q9ULT6 = molecular target: T2, Q9ULT6 (Homo sapiens, UniProt Q9ULT6); test: Cysteine liganding, probe competition (Table 2B); format: binding; settings: one line per cysteine site, read-out: KB05_500 uM_percent_inhibition
T2 construct: 200 μL of lysate containing 5 mg/ml proteome was treated with 2 μL of 100× compound stock; endogenous in cells
T2 sequence (Q9ULT6 56-936): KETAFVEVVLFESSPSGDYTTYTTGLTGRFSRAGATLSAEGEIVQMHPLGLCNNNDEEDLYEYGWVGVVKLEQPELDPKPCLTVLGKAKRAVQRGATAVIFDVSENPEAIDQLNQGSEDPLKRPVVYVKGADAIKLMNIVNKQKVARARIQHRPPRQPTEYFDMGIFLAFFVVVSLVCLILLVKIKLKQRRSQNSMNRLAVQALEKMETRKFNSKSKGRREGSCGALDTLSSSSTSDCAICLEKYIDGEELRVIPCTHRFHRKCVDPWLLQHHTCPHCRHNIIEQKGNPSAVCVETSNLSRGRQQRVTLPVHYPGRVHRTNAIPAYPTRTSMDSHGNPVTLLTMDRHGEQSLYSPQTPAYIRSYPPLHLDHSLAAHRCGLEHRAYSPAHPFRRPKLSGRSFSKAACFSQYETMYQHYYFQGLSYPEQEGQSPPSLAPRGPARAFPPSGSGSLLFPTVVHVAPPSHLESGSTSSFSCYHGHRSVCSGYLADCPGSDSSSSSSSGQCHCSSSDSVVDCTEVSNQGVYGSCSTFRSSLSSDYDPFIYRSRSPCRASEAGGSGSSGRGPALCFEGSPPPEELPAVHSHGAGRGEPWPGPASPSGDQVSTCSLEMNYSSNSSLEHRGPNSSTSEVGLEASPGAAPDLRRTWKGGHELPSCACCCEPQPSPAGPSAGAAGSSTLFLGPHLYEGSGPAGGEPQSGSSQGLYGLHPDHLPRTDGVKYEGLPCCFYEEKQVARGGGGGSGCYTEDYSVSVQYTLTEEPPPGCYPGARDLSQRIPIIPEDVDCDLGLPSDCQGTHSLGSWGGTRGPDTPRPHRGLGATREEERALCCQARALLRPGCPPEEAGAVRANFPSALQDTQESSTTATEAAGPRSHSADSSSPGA
Source text: as §1

Q99728 = Q99728 (Homo sapiens, UniProt Q99728); test: Competitive cysteine profiling, probe competition (Table 2B); format: binding; set-up: endogenous in cells; settings: read-out: KB05_100 uM_percent_inhibition
Chain of Q99728 (Q99728 whole entry): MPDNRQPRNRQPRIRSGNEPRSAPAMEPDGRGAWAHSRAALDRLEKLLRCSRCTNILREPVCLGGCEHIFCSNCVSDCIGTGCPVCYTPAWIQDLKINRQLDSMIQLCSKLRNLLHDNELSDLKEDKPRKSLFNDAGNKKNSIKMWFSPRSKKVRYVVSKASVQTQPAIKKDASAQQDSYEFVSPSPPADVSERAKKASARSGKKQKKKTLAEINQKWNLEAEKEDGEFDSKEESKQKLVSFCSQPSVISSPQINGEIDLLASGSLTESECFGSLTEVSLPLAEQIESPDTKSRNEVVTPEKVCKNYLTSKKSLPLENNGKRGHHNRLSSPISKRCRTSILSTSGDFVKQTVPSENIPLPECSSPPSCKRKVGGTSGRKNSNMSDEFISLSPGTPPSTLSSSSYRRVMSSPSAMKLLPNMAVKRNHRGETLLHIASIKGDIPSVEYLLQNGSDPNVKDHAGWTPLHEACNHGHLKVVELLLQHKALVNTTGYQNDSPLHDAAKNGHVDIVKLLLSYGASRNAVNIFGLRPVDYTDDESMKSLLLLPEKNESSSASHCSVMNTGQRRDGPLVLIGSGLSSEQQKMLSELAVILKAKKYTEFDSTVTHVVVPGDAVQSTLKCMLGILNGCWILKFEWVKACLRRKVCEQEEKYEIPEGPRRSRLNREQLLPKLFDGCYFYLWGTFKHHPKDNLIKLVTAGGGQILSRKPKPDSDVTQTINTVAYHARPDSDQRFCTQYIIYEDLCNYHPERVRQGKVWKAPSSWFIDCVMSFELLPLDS
Source text: as §1

[1] = molecular target: T3, ABCD3 ATP-binding cassette sub-family D member 3 (Homo sapiens, UniProt P28288); test: Cysteine liganding, probe competition
T3 construct: Cells were resuspended in cold PBS on ice and sonicated with a probe sonicator to achieve lysis; endogenous in cells
T3 sequence (P28288 whole entry): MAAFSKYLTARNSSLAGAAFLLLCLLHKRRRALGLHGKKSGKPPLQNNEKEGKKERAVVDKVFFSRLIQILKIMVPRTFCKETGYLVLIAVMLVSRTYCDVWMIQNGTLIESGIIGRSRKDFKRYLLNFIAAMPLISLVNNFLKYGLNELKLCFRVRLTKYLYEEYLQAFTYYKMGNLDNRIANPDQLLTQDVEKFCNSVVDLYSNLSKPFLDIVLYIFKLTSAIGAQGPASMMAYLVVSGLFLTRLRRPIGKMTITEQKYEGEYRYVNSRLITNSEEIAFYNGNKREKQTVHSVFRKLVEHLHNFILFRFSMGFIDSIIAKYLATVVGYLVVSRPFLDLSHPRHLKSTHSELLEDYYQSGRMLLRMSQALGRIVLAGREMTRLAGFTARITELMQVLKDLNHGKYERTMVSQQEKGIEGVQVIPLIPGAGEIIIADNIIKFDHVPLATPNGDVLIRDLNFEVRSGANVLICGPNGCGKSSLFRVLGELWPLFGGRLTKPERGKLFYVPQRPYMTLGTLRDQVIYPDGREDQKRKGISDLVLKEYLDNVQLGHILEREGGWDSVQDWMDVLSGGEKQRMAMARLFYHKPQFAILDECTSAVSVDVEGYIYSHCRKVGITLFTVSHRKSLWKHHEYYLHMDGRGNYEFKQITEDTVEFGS
Method: Cells were resuspended in cold PBS on ice and sonicated with a probe sonicator to achieve lysis. 200 μL of lysate containing 5 mg/ml proteome was treated with 2 μL of 100× compound stock in a 2-mL deep-well plate. The treated lysate was subsequently incubate at 25° C. for 1 hr with shaking at 600 rpm. The treated lysate was further incubated with 2 μL of 10 mM desthiobiotin iodoacetamide probe at 25° C. for 1 hr with shaking at 600 rpm. Next, the lysate was further treat with 20 μL of solution of PBS containing 11 mM MgSO4 and 2.5% Turbonuclease stock and incubated at 25° C. for 20 minutes with shaking at 600 rpm. 1.7 mL ice-cold acetone was added to each well and incubated at −20° C. for 2 hr, followed by max speed (4200 rpm) spin for 45 min. Acetone was then decanted and the plates were blotted to remove acetone. The plates were then dried in open air for 20 minutes. After drying, the plates were then covered with foil seal and stored at −80° C. overnight.
The next day, samples were re-suspended in 90 μL of solution of 9M urea, 50 mM ammonium bicarbonate and 10 mM DTT by incubating at 65C for 20 min with shaking at 1500 rpm. Next, samples were cooled to 37° C. and then 10 μL of 500 mM iodoacetamide solution (92.48 mg/ml) was added. The samples were then incubated at 37° C. for 30 min with shaking at 600 rpm. […]

Q8NF64 = molecular target: T4, Q8NF64 (Homo sapiens, UniProt Q8NF64); test: Cysteine liganding, probe competition (Table 2B); format: binding; settings: one line per cysteine site, read-out: KB02_500 uM_percent_inhibition
T4 construct: 200 μL of lysate containing 5 mg/ml proteome was treated with 2 μL of 100× compound stock; endogenous in cells
T4 sequence (Q8NF64 whole entry): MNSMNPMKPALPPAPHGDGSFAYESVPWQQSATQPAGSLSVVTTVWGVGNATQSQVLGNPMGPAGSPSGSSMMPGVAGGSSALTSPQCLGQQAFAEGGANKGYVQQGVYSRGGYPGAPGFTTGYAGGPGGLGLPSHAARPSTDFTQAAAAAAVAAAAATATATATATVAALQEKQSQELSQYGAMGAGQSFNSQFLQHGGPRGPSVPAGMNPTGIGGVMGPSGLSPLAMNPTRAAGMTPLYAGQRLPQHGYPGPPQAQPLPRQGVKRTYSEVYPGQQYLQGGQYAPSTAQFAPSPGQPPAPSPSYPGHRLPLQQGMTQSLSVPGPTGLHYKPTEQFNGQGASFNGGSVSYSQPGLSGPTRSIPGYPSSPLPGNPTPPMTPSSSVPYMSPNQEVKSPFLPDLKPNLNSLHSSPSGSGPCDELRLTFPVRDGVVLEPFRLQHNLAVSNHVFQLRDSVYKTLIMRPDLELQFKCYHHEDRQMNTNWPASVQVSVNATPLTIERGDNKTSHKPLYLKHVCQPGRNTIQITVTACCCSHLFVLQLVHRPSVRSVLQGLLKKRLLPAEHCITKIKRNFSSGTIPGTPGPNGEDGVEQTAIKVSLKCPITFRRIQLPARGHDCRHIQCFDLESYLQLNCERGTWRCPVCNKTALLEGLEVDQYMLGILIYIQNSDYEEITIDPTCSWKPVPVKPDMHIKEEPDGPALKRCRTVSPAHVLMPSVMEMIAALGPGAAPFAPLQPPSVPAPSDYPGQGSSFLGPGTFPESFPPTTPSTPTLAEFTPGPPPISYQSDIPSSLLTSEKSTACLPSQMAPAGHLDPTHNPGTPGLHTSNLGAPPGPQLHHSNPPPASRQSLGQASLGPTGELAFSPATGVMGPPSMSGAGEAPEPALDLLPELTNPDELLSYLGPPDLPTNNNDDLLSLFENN
Source text: as §1

[2] = molecular target: T5, ALDH1L2 Mitochondrial 10-formyltetrahydrofolate dehydrogen (Homo sapiens, UniProt Q3SY69); test: Cysteine liganding, probe competition; format: binding
T5 construct: 200 μL of lysate containing 5 mg/ml proteome was treated with 2 μL of 100× compound stock; endogenous in cells
T5 sequence (Q3SY69 1-923): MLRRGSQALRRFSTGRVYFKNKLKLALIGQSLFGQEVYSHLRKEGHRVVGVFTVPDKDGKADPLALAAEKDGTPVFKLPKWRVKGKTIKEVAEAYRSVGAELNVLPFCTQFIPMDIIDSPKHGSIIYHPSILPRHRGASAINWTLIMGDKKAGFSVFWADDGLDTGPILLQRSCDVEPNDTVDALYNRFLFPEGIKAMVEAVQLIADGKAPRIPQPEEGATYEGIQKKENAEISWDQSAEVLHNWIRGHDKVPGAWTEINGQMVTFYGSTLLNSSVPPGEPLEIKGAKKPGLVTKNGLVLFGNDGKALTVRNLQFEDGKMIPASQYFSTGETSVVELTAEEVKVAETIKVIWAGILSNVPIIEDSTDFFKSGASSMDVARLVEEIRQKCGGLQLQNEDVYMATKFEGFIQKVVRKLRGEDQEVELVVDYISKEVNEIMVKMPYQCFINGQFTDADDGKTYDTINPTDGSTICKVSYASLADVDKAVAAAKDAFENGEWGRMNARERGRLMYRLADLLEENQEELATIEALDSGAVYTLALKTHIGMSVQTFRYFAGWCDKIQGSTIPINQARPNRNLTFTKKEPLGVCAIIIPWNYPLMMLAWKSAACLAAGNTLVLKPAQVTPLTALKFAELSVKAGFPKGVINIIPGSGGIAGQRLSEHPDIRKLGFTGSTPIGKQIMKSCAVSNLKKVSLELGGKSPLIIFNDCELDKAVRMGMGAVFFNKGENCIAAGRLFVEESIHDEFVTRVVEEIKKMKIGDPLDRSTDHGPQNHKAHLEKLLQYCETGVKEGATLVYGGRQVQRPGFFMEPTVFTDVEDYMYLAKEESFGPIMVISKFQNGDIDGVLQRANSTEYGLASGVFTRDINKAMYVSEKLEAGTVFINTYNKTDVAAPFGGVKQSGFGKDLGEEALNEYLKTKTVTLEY
Method in brief: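 Lysates from probe-sonicated cells in PBS (5 mg/ml proteome) were exposed to compound for 1 hr at 25° C, then labelled with desthiobiotin iodoacetamide probe (10 mM stock) for 1 hr at 25° C. Probe-tagged peptides were streptavidin-enriched after trypsin digestion.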

inhibition at 100 µM (Q9C0D3): 48%
inhibition at 500 µM (Q9ULT6): 36%
inhibition at 100 µM (Q99728): 31%
Structure (SMILES): C=CC(=O)N(c1ccccc1)c1ccc(Br)cc1 [KB05]

Structure (SMILES): COc1ccc2c(c1)CCCN2C(=O)CCl [KB02]
Liganded ([1]; ABCD3 Res# 472, uniprot P28288): YES
Liganded ([1]; ABCD3 Res# 477, uniprot P28288): YES
inhibition at 500 µM (Q8NF64): 46%

Structure (SMILES): O=C(CCl)Nc1cc(C(F)(F)F)cc(C(F)(F)F)c1 [KBO3]
Liganded ([2]; ALDH1L2 Res# 707, uniprot Q3SY69): YES
100 Max ([2]; uniprot Q3SY69): 52.7
100 ave ([2]; uniprot Q3SY69): 52.7
500 ave ([2]; uniprot Q3SY69): 77.55
500 Max ([2]; uniprot Q3SY69, in % (unit assumed)): 77.55
